Test results taken from US10285986B2, “Compounds and anti-tumor NQO1 substrates” (The Board of Trustees of the University of Illinois, priority 2011, dated 2019).
In brackets after ≈: the same amount, converted by molar mass.

Experiments:
[1] = Stability during incubation in plasma, whole blood and liver microsomes; format: in vitro ADME; settings: rat, dog, and human
Protocol: Absorption Systems measured the stability of 4-31 during incubation in rat, dog, and human plasma, whole blood, and liver microsomes. […] This is in strong contrast top-lap, which has been reported to be completely degraded within about 30 min in whole blood.

[2] = pKa, log P and log D of 4-31 measured by Absorption Systems; format: physicochemical
Excerpt: A sample of compound 4-31 was delivered to Absorption Systems, a company that specializes in preclinical formulation and stability studies. […] They measured a few physical properties of 4-31, including pKa, log P and log D. Through potentiometric titrations they measured the pKa of 4-31 to be 8.0.

[3] = tested on: DNA single strand damage, base lesions and double strand breaks; test: DNA damage in vitro (alkaline comet assays, nuclear staining of DSB markers); format: cell-based; settings: data not shown
[4] = Solubility in 20% HPβCD solution (pH modulation protocol); format: physicochemical; settings: for solubility: pH 7.4, aqueous with cosolvent or surfactant or cyclodextrin, thermodynamic from solid, Table 4.3
Procedure, shortened: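 Compound slurried in 20% HPβCD in pH 7.4 PBS, dissolved by raising pH with 10 M NaOH, then brought back to pH 7.5-8.0 with 1 M HCl. Solubility compared with buffer alone.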

[5] = tested on: NQO1+ cells; test: NQO1-dependent lethality to cancer cells in vitro; format: cell-based
Excerpt: NQO1 or PARP-1 knockdown spared the short-term lethality of DNQ-treated NQO1+ cells. BAPTA-AM (cytosolic Ca^2+ chelator) and catalase (enzymatic H2O2 scavenger) rescued DNQ-induced lethality by long-term survival assessments.

[6] = tested on: A549 NSCLC cells; test: A549 subcutaneous xenograft model in nude mice, with or without ionizing radiation; format: in vivo, Athymic nude mice; settings: 5 mg/kg by tail vein on days 1, 3, 5, 7, 9, with or without 2 grays radiation; preliminary
Protocol: We are actively experimenting with DNQ in mouse models of cancer. The Boothman lab has completed a pilot study of DNQ in an A549 subcutaneous xenograft model in nude mice (Blanco et al., Cancer Res. 2010, 70, 3896). […] Athymic nude mice were inoculated with A549 NSCLC cells and established tumors were allowed to grow to ˜200 mm^3. Mice were assigned to one of six treatment groups—four mice per group. […] The doses of DNQ were chosen based on the observation that 10 mg/kg DNQ elicited adverse reactions in mice. The other three groups received the same DNQ regimen and also received 2 grays of ionizing radiation on each treatment day. Tumor volumes were measured over the subsequent weeks (FIG. 3).

[7] = tested on: healthy mice; test: in vivo; settings: mouse
Excerpt: Because of the difficulty of repeated tail vein injections in mice, our group is using IP administration of compound.
All of these derivatives are currently being assessed for their maximum tolerated dose (MTD) in healthy mice. Compounds are formulated in HPβCD and delivered by IP injection to two mice once daily for five days.

[8] = 20% HPβCD in pH 7.4 PBS, 20% HPβCD

Cc1cc(=O)[nH]c2c1C(=O)c1c(C)cc(=O)n(CC(C)C)c1C2=O [Compound 87]
stability in liver microsomes ([1]; 1 hour): no sign of degradation
stability in plasma or whole blood ([1]; 2 hours): no sign of degradation
logP ([2]; octanol/0.15 M KCl, unionized compound): 1.8
logD ([2]; pH 3.0, octanol/0.15 M KCl): 1.78
logD ([2]; pH 4.0, octanol/0.15 M KCl): 1.78
logD ([2]; pH 6.8, octanol/0.15 M KCl): 1.76
logD ([2]; pH 7.0, octanol/0.15 M KCl): 1.75
logD ([2]; pH 8.0, octanol/0.15 M KCl): 1.49
logD ([2]; pH 9.0, octanol/0.15 M KCl): 0.76
pKa ([2]; potentiometric titrations, N—H): 8
DNA single strand damage and base lesions ([3]; alkaline comet assays): extensive initial DNA single strand damage and base lesions
delay of DNA double strand break formation after initial DNA SSBs and base lesions [3]: 15 to 30 min
solubility [4, 8]: 13 mM (≈ 4240 µg/mL)

Cc1cc(=O)[nH]c2c1C(=O)c1c(C)cc(=O)n(C)c1C2=O [DNQ, Deoxynyboquinone, reference compound]
LD90 ([5]; 2 hour exposure of NQO1+ cells): 50 to 250 nM
potency compared to β-lapachone ([5]; cancer cell types, NQO1-dependent): 20- to 100 fold
rate of tumor growth [6]: slower the rate of tumor growth relative to control
dose that elicited adverse reactions in mice [7]: 10 mg/kg
phenotype in mice at the MTD ([7]; ip): lethargic and unresponsive to touch
fold increase in solubility in HPβCD over PBS alone ([4]; 20% HPβCD): 30 fold
solution concentration in HPβCD ([4]; 20% HPβCD in pH 7.4 PBS): 3.3 mM
solubility [4, 8]: 3.3 mM (≈ 938 µg/mL)
solution concentration a 40% HPβCD solution would permit ([4]; 40% HPβCD, linear extrapolation): 6.6 mM
